For test [1], the system named is Histone deacetylase (HDAC), HeLa cell nuclear extract. Nature of the test: In vitro fluorescent histone deacetylase assay (Biomol kit, HeLa cell nuclear extract). Type of test: biochemical. The conditions noted are these: compound at 100 μM; HeLa cell nuclear extract as HDAC source; substrate 50 μM; 10 min at room temperature. In a few lines: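 HeLa nuclear extract supplies mixed HDAC activity acting on fluorogenic substrate at 50 μM final, 10 min at room temperature before stopping. Compounds serially diluted in assay buffer, final DMSO ≤2%. Fluorescence read at ex 355/em 460 nm.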

Another test deals with MCF7 cells. Nature of the test: Whole cell cytotoxicity assay: Sulforhodamine B. It is filed as cell-based, human. The settings on record: Homo sapiens; compound at 100 μM; MCF7 cell growth; 48 hours with drug; SRB staining. In a few lines:
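MCF7 cells in DMEM with 10% FBS were seeded 24 h before compound, then exposed to nine concentrations for 48 h at 37° C. TCA-fixed cells stained with sulforhodamine B; absorbance at 570 nm, with a time-zero plate fixed at drug addition.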
(In SRB staining, fixed cells bind dye roughly in proportion to their protein.)

SMILES strings stand for the structures.

The inhibition is how much of the control response was suppressed. Low values mean a response near the control, high ones a response far below the control.

For the compound `Cn1cnc(S(=O)(=O)N2CCN(c3ncc(C(=O)NO)s3)CC2)c1` [Example 102], the “% inhibition HDAC @ 100 μM” value in test [1] was 99%. In the test on MCF7 cells, this compound yielded an inhibition at 100 µM of 84%.
The like results for `COc1ccc(S(=O)(=O)N2CCN(c3ncc(C(=O)NO)s3)CC2)cc1` [Example 103, 2-[4-(4-Methoxybenzenesulfonyl)piperazin-1-yl]-thiazole-5-carboxylic acid hydroxyamide] were, in that order, 100% and 97.5%.
The like results for `O=C(NO)c1cnc(N2CCN(S(=O)(=O)c3ccc(CN4CCCC4)cc3)CC2)s1` [Example 105] were, in that order, 99% and 93%.
Consider `O=C(NO)c1cnc(N2CCN(S(=O)(=O)c3ccc(CN4CCOCC4)cc3)CC2)s1` [Example 106], for which, in test [1], the “% inhibition HDAC @ 100 μM” value is reported as 99%. Besides, the inhibition at 100 µM in the test with MCF7 cells was 82.3%.

Source of the values: US20050197336A1 (Miikana Therapeutics Corporation, priority 2004, published 2005).
